Patent publication US20130052259A1, “LIPOSOMES COMPRISING AMPHIPATHIC DRUGS AND METHOD FOR THEIR PREPARATION” (priority 2010, published 2013)
≈ marks a conversion by molar mass, not a printed value.

Assays:
[1] = Physicochemical properties of VCR and TPT
Text: The need to develop one liposome that includes two drugs at a specific predefined mole ratio required optimization of the loading conditions and “crosstalk” with the drugs. For this, physiochemical characterization of the two drugs is required.

[2] = in vivo; settings: nude, mouse, plasma, iv
[3] = Pharmacokinetics in tumor-bearing nude mice after i.v. administration; settings: eight hours post injection, based on AUC value
[4] = In vitro release of drugs from nanoliposomes in adult bovine serum at 37° C.; type: in vitro ADME; settings: drug encapsulated in nSSL
Experimental: For studying the effect of biological fluids, drug loaded nSSLs were incubated up to 96 h at 37° C. in adult bovine serum (Biological Industries, Beit Haemek, Israel).

[5] = Maximum tolerated dose (MTD); design: species or system mice; settings: mouse, in vivo; ≦15% body weight loss nadir lasting ≦2 days
Experimental: The MTD is determined in clinical trials by testing increasing doses on different groups of people until the highest dose with acceptable side effects is found. For each drug, the MTD as determined in clinical trials is then available via publicly available sources such as SciFinder which is the On Line search engine of The American Chemical Society for various information including MTD (in animals as well as in humans). […] In this context, the “MTD ratio” between two drugs is the ratio between the MTD determined for each drug.
Tumor volume, survival, and body weight were monitored 2-3 times per week.

[6] = test system: Daoy medulloblastoma cells; assay: MTT cytotoxicity and median-effect (CI) analysis, Daoy; settings: for Fractional kill (fa): 72 h MTT; for Dx (Dx1, Dx2, Dx12: dose for effect level fa): doses of Table 1 (ng/ml);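 for all read-outs here: drugs applied at fixed ratios over eight concentrations for 72 h, survival expressed against untreated control wells, affected fraction (fa) derived per well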
Experimental: Human medulloblastoma (Daoy) cells, colon cancer (SW480) cells and neuroblastoma (NB-EB) cells were exposed to fixed ratios at eight concentrations of drugs for 72 hours along the profile of the most cytotoxic drug. Viable cells were quantified using standard MTT assay (T. Mosmann, Rapid colorimetric assay for cellular growth and survival: application to proliferation and cytotoxicity assays. J Immunol Methods 65(1-2) (1983) 55-63).
Test data were converted to a percentage mean cell survival value relative to untreated control wells. The fraction of affected cells (fa) was subsequently determined for each well.
The median effect analysis uses the combination index (CI) value as a quantitative indicator of the degree of synergy or antagonism. Using this analysis method, CI=1.0 reflects additive activity, CI>1 signifies antagonism, and CI<1.0 indicates synergy.
Firstly, in vitro cytotoxicity of VCR, TPT and their combinations was evaluated using the median-effect analysis of Chou et al [T. C. […] The selection of this drug interaction analysis method was based on its suitability for assessing whether drugs interact synergistically (CI<1.0), additively (CI f 1.0), or antagonistically (CI>1.0) as a function of drug concentration for different fixed drug/drug ratios.

[7] = test system: SW480 (colon) tumors; assay: Efficacy against SW480 (colon) tumors in nude mice, Kaplan-Meier; settings: SW480 tumors s.c., i.v. at days 17, 23 and 29
Experimental: Nine mice were treated in each group. All mice received injections through the tail vain at days 17, 23 and 29.
Approximately 4 million Daoy and SW480 tumor cells were inoculated subcutaneously (s.c.) in the back of 5 weeks old NUDE-Hsd:Athymic mice. Tumor weights were determined according to the equation (length×width^2)/2 using direct caliper measurements (D. M. Euhus, C. Hudd, M. C. LaRegina, F. E. Johnson, Tumor measurement in the nude mouse. J Surg Oncol 31(4) (1986) 229-234; M. M. Tomayko, C. P. Reynolds, Determination of subcutaneous tumor size in athymic (nude) mice. Cancer Chemother Pharmacol 24(3) (1989) 148-154).
The statistical significance between different treatment groups was determined using Mood's median test [A. M. Mood, Introduction to the theory of statistics, McGraw-Hill, New York, 1950.].

Molecule | pKa [1] | solubility ([1]; pH 6, aqueous buffer) [µM] | solubility ([1]; pH 8, aqueous buffer) [µM] | AUC [2] [ng·h/mL] | Cmax [2] [ng/mL] | MRT [2] [h] | clearance [2] [mL/min] | half-life [2] [h] | release kinetics order [4] | m (slope, Hill-type coefficient of the dose-effect curve) ([6]; Daoy cells) | Dx (Dx1, Dx2, Dx12: dose for effect level fa) ([6]; fa 0.1) | Dx (Dx1, Dx2, Dx12: dose for effect level fa) ([6]; fa 0.2) | Dx (Dx1, Dx2, Dx12: dose for effect level fa) ([6]; fa 0.3) | Dx (Dx1, Dx2, Dx12: dose for effect level fa) ([6]; fa 0.4) | Dx (Dx1, Dx2, Dx12: dose for effect level fa) ([6]; fa 0.5) | Dx (Dx1, Dx2, Dx12: dose for effect level fa) ([6]; fa 0.6) | Dx (Dx1, Dx2, Dx12: dose for effect level fa) ([6]; fa 0.7) | Dx (Dx1, Dx2, Dx12: dose for effect level fa) ([6]; fa 0.8) | Dx (Dx1, Dx2, Dx12: dose for effect level fa) ([6]; fa 0.9) | other results
CC[C@@]1(O)C(=O)OCc2c1cc1n(c2=O)Cc2cc3c(CN(C)C)c(O)ccc3nc2-1 [Topotecan (TPT), Topotecan] | 7.65 | 3600 (≈ 1520 µg/mL) | 200 (≈ 84.3 µg/mL) | 2700 ± 910 | 3980 ± 1040 | 0.6 ± 0.07 | 1.28 | 1.03 | – | – | – | – | – | – | – | – | – | – | – | Non-polar/polar surface area ratio [1]: 2.81; lactone ratio of TPT [3]: 9%
CC[C@]1(O)C[C@H]2CN(CCc3c([nH]c4ccccc34)[C@@](C(=O)OC)(c3cc4c(cc3OC)N(C=O)[C@H]3[C@@](O)(C(=O)OC)[C@H](OC(C)=O)[C@]5(CC)C=CCN6CC[C@]43[C@@H]65)C2)C1 [Vincristine (VCR), Vincristine] | 7.64 | 300 (≈ 247 µg/mL) | 10 (≈ 8.25 µg/mL) | 2510 ± 460 | 1370 ± 340 | 1.73 ± 0.3 | 0.273 | 2.09 | zero-order kinetics | m: 1.926 | 1.76 | 2.68 | 3.55 | 4.46 | 5.50 | 6.79 | 8.55 | 11.31 | 17.22 | logP [1]: 2.97; logD ([1]; pH 6): 1.2; logD ([1]; pH 8): 2.81; MTD [5]: 1.5 mg/kg; IC50 ([6]; Homo sapiens, Daoy, read-out: Dm (dose required to produce the median-effect)): 5.51 ng/mL (≈ 6.67 nM); Log [1/(1/fa − 1)] ([6]; dose 1 ng/ml): −1.43; Fractional kill (fa) ([6]; dose 1 ng/ml): 0.04; Log [1/(1/fa − 1)] ([6]; dose 2 ng/ml): −0.93; Fractional kill (fa) ([6]; dose 2 ng/ml): 0.11; Log [1/(1/fa − 1)] ([6]; dose 4 ng/ml): −0.36; Fractional kill (fa) ([6]; dose 4 ng/ml): 0.30; Log [1/(1/fa − 1)] ([6]; dose 8 ng/ml): 0.65; Fractional kill (fa) ([6]; dose 8 ng/ml): 0.82; Log [1/(1/fa − 1)] ([6]; dose 24 ng/ml): 1.07; Fractional kill (fa) ([6]; dose 24 ng/ml): 0.92
Topotecan [Topotecan (TPT)] | – | – | – | – | – | – | – | – | first-order kinetics followed by zero-order kinetics | m: 1.663 | 21.67 | 35.29 | 48.80 | 63.65 | 81.23 | 103.66 | 135.22 | 186.99 | 304.53 | Dm (dose required to produce the median-effect) ([6]; Daoy cells, […]): Dm: 81.23 ng/ml; Log [1/(1/fa − 1)] ([6]; dose 40 ng/ml): −0.64; Fractional kill (fa) ([6]; dose 40 ng/ml): 0.18; Log [1/(1/fa − 1)] ([6]; dose 60 ng/ml): −0.08; Fractional kill (fa) ([6]; dose 60 ng/ml): 0.46; Log [1/(1/fa − 1)] ([6]; dose 80 ng/ml): 0.04; Fractional kill (fa) ([6]; dose 80 ng/ml): 0.52; Log [1/(1/fa − 1)] ([6]; dose 200 ng/ml): 0.59; Fractional kill (fa) ([6]; dose 200 ng/ml): 0.80; Log [1/(1/fa − 1)] ([6]; dose 400 ng/ml): 1.15; Fractional kill (fa) ([6]; dose 400 ng/ml): 0.93; therapeutic efficacy (Kaplan-Meier, tumor ≧1000 mg as endpoint) ([7]; listed as Free TPT): inferior to the liposomal formulations; therapeutic efficacy (Kaplan-Meier, tumor ≧1000 mg as endpoint) ([7]; listed as free TPT): more efficacious for colon cancer
